IC50 data for 24 molecules are collected here from US10399932B2, “Inhibitors of indoleamine-2,3-dioxygenase for the treatment of cancer” (BRISTOL-MYERS SQUIBB COMPANY, priority 2015, dated 2019).

The target in this test is human IDO1 (Homo sapiens, UniProt P14902). In words: Assessment of human IDO-1 inhibitory activity in Hela cells (Interferon-gamma activated, Ehrlich reagent, absorbance at 490 nm). In kind it is cell-based. On the set-up: endogenous in cells; host or cells: HeLa cells stimulated with interferon-gamma. The conditions noted are these: 18 hours. In a few lines:
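HeLa cells were preincubated with compound for 1 h at 37 °C, then stimulated with human IFN-γ (10 ng/ml final) or murine IFN-γ (5 ng/ml final) for 18 h. Kynurenine was read after TCA (3% final, 50 °C for 30 min) and Ehrlich reagent at A490. For IC50, unstimulated wells were set as 100% inhibition and IFN-γ alone as 0%.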

Chain of human IDO1 (P14902 whole entry): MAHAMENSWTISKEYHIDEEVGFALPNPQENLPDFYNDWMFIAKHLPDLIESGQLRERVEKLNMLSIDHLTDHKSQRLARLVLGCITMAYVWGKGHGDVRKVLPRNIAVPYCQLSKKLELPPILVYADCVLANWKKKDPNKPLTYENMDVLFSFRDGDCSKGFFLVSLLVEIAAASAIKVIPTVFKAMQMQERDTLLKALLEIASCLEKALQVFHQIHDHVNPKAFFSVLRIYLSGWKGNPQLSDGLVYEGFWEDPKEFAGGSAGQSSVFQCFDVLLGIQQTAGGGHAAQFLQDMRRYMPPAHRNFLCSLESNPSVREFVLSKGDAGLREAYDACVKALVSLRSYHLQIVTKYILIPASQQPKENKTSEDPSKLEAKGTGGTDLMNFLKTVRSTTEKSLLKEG

As to `CCC1COCCN1c1ccc([C@H](COC)CC(=O)O)cc1Nc1ccc(Cl)cc1` (single isomer, unassigned) [Example 1308], the IC50 (in general, the concentration that gives 50% inhibition) is below 50 nM.
As for `CCC1COCCN1c1ccc([C@H](COC)CC(=O)O)cc1Nc1ccc(F)cn1` (single isomer, unassigned) [Example 1310], the figure is above 50 nM; as for `COCC(CC(=O)O)c1ccc(N2CCOC(C)C2)c(Nc2ccc(C#N)cc2)c1` (single isomer, unassigned) [Example 1313], above 50 nM.
As for `COCC(CC(=O)O)c1ccc(N2CCOC(C)(C)C2)c(Nc2ccc(C#N)cc2)c1` (single isomer, unassigned) [Example 1317], the figure is above 50 nM.
`COCC(CC(=O)O)c1ccc(N2CCC(c3ccccc3)CC2)c(Nc2ccc(C#N)cc2)c1` (single isomer, unassigned) [Example 1350 E2, 3-(3-((4-Cyanophenyl)amino)-4-(4-phenylpiperidin-1-yl)phenyl)-4-methoxybutanoic acid] displayed an IC50 below 5 nM.
As for `CCN(c1cc(F)c([C@@H](COC)CC(=O)O)cc1Nc1ccc(Cl)cc1)C1CCOCC1` (stereo in doubt) [Example 851, 3-(5-((4-chlorophenyl)amino)-4-(ethyl(tetrahydro-2H-pyran-4-yl)amino)-2-fluorophenyl)-4-methoxybutanoic acid], the figure is below 5 nM; as for `CCOc1ncc(Nc2cc(C(CC(=O)O)C3CC3)ccc2N2C[C@@H](C)O[C@@H](C)C2)cn1` (stereo partly drawn) [Example 250, 3-cyclopropyl-3-(4-((2R,6S)-2,6-dimethylmorpholino)-3-((2-ethoxypyrimidin-5-yl)amino)phenyl) propanoic acid], above 50 nM.
The same measure for `COCC(CC(=O)OC)c1ccc(N(CC(F)F)C2CCOCC2)c(Nc2ccc(Cl)cc2)c1` (stereo not drawn) [Example 319, methyl 3-(3-((4-chloro-phenyl)amino)-4-((2,2-difluoroethyl) (tetrahydro-2H-pyran-4-yl)amino)phenyl)-4-methoxy-butanoate]: below 5 nM; for `COCC(CC(=O)OC)c1ccc(N(CC(F)F)C2CCOCC2)c(Nc2ccc(Cl)cc2)c1` (stereo not drawn) [Example 320, methyl 3-(3-((4-chloro-phenyl)amino)-4-((2,2-difluoroethyl) (tetrahydro-2H-pyran-4-yl)amino)phenyl)-4-methoxy-butanoate]: above 50 nM.
As for `CCN(c1ccc([C@@H](COC)CC(=O)O)cc1Nc1cccc(OC(F)(F)C(F)F)c1)C1CCOCC1` [Example 361, (S)-3-(4-(ethyl(tetrahydro-2H-pyran-4-yl)amino)-3-((3-(1,1,2,2-tetrafluoroethoxy)phenyl)amino)phenyl)-4-methoxybutanoic acid], the figure is below 5 nM; as for `CCN(c1ccc([C@@H](COC)CC(=O)O)cc1Nc1ccc(C#N)c(OC)c1)C1CCOCC1` [Example 380], below 50 nM.
Turning to `CCN(c1ccc([C@H](COC)CC(=O)O)cc1Nc1cccc(OC(F)(F)C(F)F)c1)C1CCOCC1` [Example 398, (R)-3-(4-(ethyl(tetrahydro-2H-pyran-4-yl)amino)-3-((3-(1,1,2,2-tetrafluoroethoxy)phenyl)amino)phenyl)-4-methoxybutanoic acid], the IC50 is below 5 nM.
The same measure for `CCN(c1ccc([C@@H](COC)CC(=O)O)cc1NC(=O)Nc1ccc(C#N)cc1)C1CCOCC1` [Example 422 E1, (S)-3-(3-(3-(4-Cyanophenyl)ureido)-4-(ethyl(tetrahydro-2H-pyran-4-yl)amino)phenyl)-4-methoxybutanoic acid]: above 50 nM; for `CCN(c1cc(F)c(C(COC)CC(=O)O)cc1Nc1ccc(Cl)cc1)C1CCOCC1` (stereo not drawn) [Example 845, 3-(5-((4-chlorophenyl)amino)-4-(ethyl(tetrahydro-2H-pyran-4-yl)amino)-2-fluorophenyl)-4-methoxybutanoic acid]: below 50 nM.
As for “(R)-3-(3-((4-chlorophenyl)amino)-4-((1,1-dioxidotetrahydro-2H-thiopyran-4-yl)(ethyl)amino)phenyl)-4-isopropoxybutanoic acid [Example 330]”, the figure is below 5 nM.
As to “(R)-3-(3-((4-cyano-3-methylphenyl)amino)-4-(ethyl(tetrahydro-2H-pyran-4-yl)amino)phenyl)-4-methoxybutanoic acid [Example 391]”, the IC50 was below 50 nM.
Molecule “(R)-3-(4-((1,1-dioxidotetrahydro-2H-thiopyran-4-yl)(ethyl)amino)-3-((2-ethoxypyrimidin-5-yl)amino)phenyl)-4-isopropoxybutanoic acid [Example 333]” displayed an IC50 above 50 nM.
The molecule “(R)-3-(4-((1,1-dioxidotetrahydro-2H-thiopyran-4-yl)(ethyl)amino)-3-((2-methoxypyrimidin-5-yl)amino)phenyl)-4-isopropoxybutanoic acid [Example 332]” had an IC50 above 50 nM.
“(R)-3-(4-((1,1-dioxidotetrahydro-2H-thiopyran-4-yl)(ethyl)amino)-3-((4-fluorophenyl)amino)phenyl)-4-isopropoxybutanoic acid [Example 331]” returned an IC50 below 50 nM.
As for “(R)-3-(4-(ethyl(tetrahydro-2H-pyran-4-yl)amino)-3-((2-(tetrahydro-2H-pyran-4-yl)pyrimidin-5-yl)amino)phenyl)-4-methoxybutanoic acid [Example 403]”, the figure is above 50 nM; as for “(S)-3-(3-((4-chlorophenyl)amino)-4-((1,1-dioxidotetrahydro-2H-thiopyran-4-yl)(ethyl)amino)phenyl)-4-isopropoxybutanoic acid [Example 325]”, below 5 nM; as for “(S)-3-(4-((1,1-dioxidotetrahydro-2H-thiopyran-4-yl)(ethyl)amino)-3-((2-ethoxypyrimidin-5-yl)amino)phenyl)-4-isopropoxybutanoic acid [Example 328]”, above 50 nM.
As for “(S)-3-(4-((1,1-dioxidotetrahydro-2H-thiopyran-4-yl)(ethyl)amino)-3-((2-methoxypyrimidin-5-yl)amino)phenyl)-4-isopropoxybutanoic acid [Example 327]”, the figure is above 50 nM.
The molecule “(S)-3-(4-(ethyl(tetrahydro-2H-pyran-4-yl)amino)-3-((2-(tetrahydro-2H-pyran-4-yl)pyrimidin-5-yl)amino)phenyl)-4-methoxybutanoic acid [Example 366]” registered an IC50 above 50 nM.
